Data: US10041085B2, “Plant type related protein, and coding gene and application thereof” (Cotton Research Institute, Chinese Academy of Agricultural …, priority 2013, dated 2018)

Key:
Assay type in all cases: in vivo, Gossypium hirsutum
[1] = test system: mutant pagoda1; experiment: Shaping of cotton by local application of brassinosteroids
From the text: Since brassinosteroids cannot be delivered for a long distance in a plant, a local application thereof may promote the growth of the applied part, without an impact on the far part.

[2] = test system: cotton variety "CRI 24"; experiment: Response of cotton variety CRI 24 to brassinosteroids (hypocotyledonary axis length); details: 500 nM in liquid medium, cotyledon stage to five leaf stage, vs 0.2% ethanol control, average of 20 plants
Method: (§1) The mutant pagoda1 and the cotton variety“CRI 24” were identified as below, respectively: • Test Group: cultivating cotton plants of the cotyledon stage in a liquid medium containing 500 nM brassinosteroids (Sigma) to the five leaf stage, to measure the length of its hypocotyledonary axis;
(§2) Control Group: the same as the Test Group, except that brassinosteroids was replaced with an equal volume of an aqueous solution of 0.2% ethanol.
(§3) The length measurements of hypocotyledonary axis of the processed plants from respective groups (an averaged measurement of 20 plants for each group) are shown in FIG. 2. […] For the cotton variety “CRI 24”, after the treatment with brassinosteroids, the hypocotyledonary axis was prolonged by only 16%.

[3] = test system: mutant pagoda1; experiment: Response of mutant pagoda1 to brassinosteroids (hypocotyledonary axis length); details: 500 nM in liquid medium, cotyledon stage to five leaf stage, vs 0.2% ethanol control, average of 20 plants
Method: as §1, §2, §3

brassinosteroids
extension of the lateral branch after application to the lateral branch ([1]; 500 nM applied to a lateral branch of a seedling of mutant pagoda1 (FIG. 4B)): significantly extended
growth of the top of the seedling after application to the top ([1]; 500 nM applied to the top of a seedling of mutant pagoda1 (FIG. 4A)): significantly promoting the growth of the top of the seeding
hypocotyledonary axis prolonged after treatment with brassinosteroids [2]: 16%
hypocotyledonary axis prolonged after treatment with brassinosteroids [3]: 270%
